In the supplement of paper PMC10307832:

What was measured:
Test in all cases: relative viability (nuclei count vs DMSO), 5 days (fraction); higher = more cells survive
BI-D1870 + Bortezomib = compound: CC(C)CCN1c2nc(Nc3cc(F)c(O)c(F)c3)ncc2N(C)C(=O)C1C [BI-D1870] + CC(C)C[C@H](NC(=O)[C@H](Cc1ccccc1)NC(=O)c1cnccn1)B(O)O [Bortezomib] (partner 0.002 µM)
Outline: (§1)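 Lung cancer cell lines in 1536-well plates got either a single drug or a fixed anchor-drug dose together with five library-drug doses (not always all listed) in √10 steps, by pin tool, on the day after seeding. Nuclei were counted after 5 days, and relative viability is the treated-to-vehicle ratio of nuclei counts. Values are medians of duplicate plates.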

BI-D1870 + Navitoclax = compound: CC(C)CCN1c2nc(Nc3cc(F)c(O)c(F)c3)ncc2N(C)C(=O)C1C [BI-D1870] + CC1(C)CCC(c2ccc(Cl)cc2)=C(CN2CCN(c3ccc(C(=O)NS(=O)(=O)c4ccc(N[C@H](CCN5CCOCC5)CSc5ccccc5)c(S(=O)(=O)C(F)(F)F)c4)cc3)CC2)C1 [Navitoclax] (partner 0.5 µM)
Outline: as §1

BI-D1870 + Pemetrexed = compound: CC(C)CCN1c2nc(Nc3cc(F)c(O)c(F)c3)ncc2N(C)C(=O)C1C [BI-D1870] + Nc1nc2[nH]cc(CCc3ccc(C(=O)N[C@@H](CCC(=O)O)C(=O)O)cc3)c2c(=O)[nH]1 [Pemetrexed] (partner 0.2 µM)
Outline: as §1

Zebularine + Phenformin = compound: O=c1ncccn1[C@@H]1O[C@H](CO)[C@@H](O)[C@H]1O [Zebularine] + N=C(N)NC(=N)NCCc1ccccc1 [Phenformin] (partner 250 µM)
Outline: as §1

| Cell Line | relative viability (BI-D1870 + Bortezomib; first compound 0.04 µM) | relative viability (BI-D1870 + Bortezomib; first compound 0.1265 µM) | relative viability (BI-D1870 + Bortezomib; first compound 0.4 µM) | relative viability (BI-D1870 + Bortezomib; first compound 1.265 µM) | relative viability (BI-D1870 + Bortezomib; first compound 4 µM) | relative viability (BI-D1870 + Navitoclax; first compound 0.04 µM) | relative viability (BI-D1870 + Navitoclax; first compound 0.1265 µM) | relative viability (BI-D1870 + Navitoclax; first compound 0.4 µM) | relative viability (BI-D1870 + Navitoclax; first compound 1.265 µM) | relative viability (BI-D1870 + Navitoclax; first compound 4 µM) | relative viability (BI-D1870 + Pemetrexed; first compound 0.04 µM) | relative viability (BI-D1870 + Pemetrexed; first compound 0.1265 µM) | relative viability (BI-D1870 + Pemetrexed; first compound 0.4 µM) | relative viability (BI-D1870 + Pemetrexed; first compound 1.265 µM) | relative viability (BI-D1870 + Pemetrexed; first compound 4 µM) | relative viability (Zebularine + Phenformin; first compound 1 µM) | relative viability (Zebularine + Phenformin; first compound 3.162 µM) | relative viability (Zebularine + Phenformin; first compound 10 µM) | relative viability (Zebularine + Phenformin; first compound 31.62 µM) | relative viability (Zebularine + Phenformin; first compound 100 µM) |
| --- | --- | --- | --- | --- | --- | --- | --- | --- | --- | --- | --- | --- | --- | --- | --- | --- | --- | --- | --- | --- |
| HOP-62 | 0.74 | 0.812 | 0.809 | 0.803 | 0.456 | 1.06 | 1.01 | 0.995 | 1.2 | 1.01 | 0.331 | 0.333 | 0.379 | 0.409 | 0.365 | 0.827 | 0.653 | 0.286 | 0.282 | 0.266 |
| LC-2-ad | 1.11 | 0.921 | 0.999 | 1.04 | 0.953 | 0.549 | 0.44 | 0.444 | 0.41 | 0.244 | 0.292 | 0.267 | 0.264 | 0.275 | 0.253 | 0.657 | 0.538 | 0.416 | 0.488 | 0.325 |
| LCLC-97TM1 | 0.833 | 0.693 | 0.734 | 0.957 | 0.372 | 0.407 | 0.398 | 0.574 | 0.364 | 0.613 | 0.173 | 0.188 | 0.16 | 0.221 | 0.175 | 0.401 | 0.413 | 0.322 | 0.256 | 0.272 |
| LOU-NH91 | 0.485 | 0.465 | 0.451 | 0.484 | 0.466 | 0.854 | 0.631 | 0.721 | 0.662 | 0.522 | 0.355 | 0.372 | 0.329 | 0.386 | 0.344 | 0.674 | 0.717 | 0.437 | 0.693 | 0.549 |
| LU99A | 1.34 | 1.03 | 1.12 | 1.06 | 1.02 | 0.805 | 0.744 | 0.798 | 0.961 | 0.911 | 0.178 | 0.2 | 0.171 | 0.183 | 0.135 | 0.856 | 0.831 | 0.551 | 0.558 | 0.208 |
| LXF-289 | 1.05 | 1.02 | 1 | 0.977 | 0.879 | 0.951 | 0.923 | 0.94 | 0.936 | 0.895 | 0.959 | 0.857 | 0.876 | 0.877 | 0.764 | 0.512 | 0.503 | 0.41 | 0.406 | 0.26 |
| NCI-H23 | 1.44 | 0.85 | 1.16 | 1.03 | 0.529 | 1.15 | 0.741 | 0.792 | 0.891 | 0.888 | 1.12 | 0.585 | 0.602 | 0.684 | 0.316 | 0.847 | 0.821 | 0.423 | 0.75 | 0.77 |
| NCI-H322M | 1.23 | 1.24 | 1.22 | 1.14 | 1.06 | 1.22 | 1.19 | 1.44 | 1.06 | 1.07 | 0.632 | 0.564 | 0.596 | 0.59 | 0.517 | 0.816 | 0.747 | 0.568 | 0.73 | 0.671 |
| NCI-H441 | 0.749 | 0.535 | 0.796 | 0.777 | 0.71 | 0.478 | 0.575 | 0.692 | 0.642 | 0.338 | 0.262 | 0.279 | 0.245 | 0.237 | 0.265 | 0.803 | 0.73 | 0.366 | 0.309 | 0.396 |
| NCI-H460 | 1.45 | 1.01 | 1.06 | 0.686 | 0.51 | 1.24 | 1.09 | 1.08 | 0.407 | 0.0595 | 0.0638 | 0.0586 | 0.0621 | 0.0582 | 0.0624 | 0.601 | 0.592 | 0.364 | 0.127 | 0.0588 |
| NCI-H520 | 0.618 | 0.521 | 0.525 | 0.542 | 0.309 | 1.12 | 1.01 | 0.938 | 1.05 | 0.829 | 0.757 | 0.673 | 0.636 | 0.416 | 0.267 | 0.76 | 0.6 | 0.313 | 0.332 | 0.206 |
| NCI-H596 | 1.38 | 0.86 | 1.12 | 1.19 | 0.943 | 1.21 | 0.922 | 0.947 | 1.2 | 0.987 | 0.458 | 0.47 | 0.45 | 0.576 | 0.454 | 0.844 | 0.817 | 0.579 | 0.776 | 0.807 |
| NCI-H647 | 1.02 | 0.857 | 1.08 | 1.31 | 0.743 | 1.27 | 0.978 | 1.08 | 1.04 | 0.848 | 0.155 | 0.162 | 0.192 | 0.218 | 0.127 | 0.539 | 0.48 | 0.178 | 0.22 | 0.12 |
| NCI-H838 | 0.901 | 0.72 | 0.747 | 1.14 | 0.768 | 1.28 | 1.04 | 1.12 | 1.29 | 1.21 | 0.267 | 0.249 | 0.31 | 0.248 | 0.262 | 0.695 | 0.668 | 0.549 | 0.509 | 0.285 |
| NCI-H1355 | 1.24 | 1.22 | 1.21 | 1.28 | 1.02 | 0.959 | 0.959 | 0.988 | 1.05 | 1.03 | 1.04 | 0.998 | 1.03 | 1.15 | 0.963 | 0.507 | 0.45 | 0.425 | 0.403 | 0.294 |
| NCI-H1437 | 0.539 | 0.474 | 0.478 | 0.466 | 0.423 | 1.19 | 1.06 | 1.11 | 1.03 | 0.973 | 0.335 | 0.303 | 0.323 | 0.355 | 0.338 | 0.333 | 0.311 | 0.229 | 0.328 | 0.376 |
